# In US7199157B2, “Use of treprostinil to improve kidney functions” (United Therapeutics Corporation, priority 2003, dated 2007):
# How the values were obtained:
# [1] = system: human pulmonary arterial smooth muscle cells; conditions: cited from earlier work
# [2] = system: patients suffering from poor kidney function; test: Administration of Treprostinil to humans suffering from kidney malfunction/failure (chronic continuous subcutaneous infusion)
# Procedure: The target dose is determined by titration in patients for a clinical effect. The medication is delivered by a small pump that is connected to a catheter placed under the skin. In this manner, increasing dosages of Treprostinil are administered to patients by chronic continuous subcutaneous infusion. […] An example of one target dose is 10 ng/kg/min.
# [3] = system: human alveolar macrophages; conditions: cited from earlier work
# [4] = system: patients with class III or class IV heart failure; conditions: cited from earlier work
smiles,measurement,setting,value
CCCCC[C@H](O)CC[C@@H]1[C@H]2Cc3cccc(OCC(=O)[O-])c3C[C@H]2C[C@H]1O.[Na+] [Treprostinil],proliferation of human pulmonary arterial smooth muscle cells,[1],inhibits proliferation
same,urine production,"[2]; at least two patients with poor kidney function, also on dialysis, treatment over the course of several weeks",improved urine production
same,common side effects,"[2]; at peak dose, continuous subcutaneous infusion",headache and nausea
same,"inflammatory cytokine (tumor necrosis factor-α, interleukin-1β, interleukin-6, granulocyte macrophage colony-stimulating factor) secretion and gene expression",[3],inhibits
same,vasodilator effects,[4],vasodilator effects
